Each compound was assayed against T1, human GPR119 (Homo sapiens, UniProt Q8TDV5) (assay: Measurement of GPR119 signaling (cAMP assay) in HEK 293 cells stably transfected with human GPR119). Details: not given.
T1 sequence (Q8TDV5 1-308 limits assumed): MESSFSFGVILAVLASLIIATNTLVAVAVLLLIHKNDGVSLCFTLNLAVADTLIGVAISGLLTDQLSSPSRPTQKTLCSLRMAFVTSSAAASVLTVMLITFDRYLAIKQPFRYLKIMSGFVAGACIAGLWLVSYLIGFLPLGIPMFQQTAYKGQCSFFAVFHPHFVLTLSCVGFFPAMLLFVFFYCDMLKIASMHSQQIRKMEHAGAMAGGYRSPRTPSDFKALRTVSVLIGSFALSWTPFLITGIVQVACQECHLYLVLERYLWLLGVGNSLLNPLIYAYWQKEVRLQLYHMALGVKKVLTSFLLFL
Format: cell-based
Text: Measurement of GPR119 Signaling (Cyclic AMP (cAMP) Assay)
Human embryonic kidney (HEK) 293 cell lines stably transfected with human GPR119 were maintained in Dulbecco's Modified Eagle Medium (DMEM) containing fetal bovine serum (FBS), penicillin-streptomycin, HEPES buffer (4-(2-hydroxyethyl)-1-piperazineethane sulfonic acid), and hygromycin. For the cAMP assay, the transfected cells were harvested using a non-enzymatic cell dissociation solution (GIBCO 2672), pelleted and resuspended in stimulation buffer (DMEM, 25 mM HEPES, 0.1% bovine serum albumin (BSA), pH 7.4 in the presence of 100 μM phosphodiesterase inhibitors). The adenylate cyclase assay was constructed following the LANCE™ cAMP Kit (Perkin Elmer, AD0264) instructions.
Briefly, cells with Alexa Fluor® 647-anti cAMP antibody were incubated with 10 point series diluted test article in stimulation buffer with a final concentration of 2.5% DMSO for 45 minutes. The reaction was stopped by incubating with the supplied detection buffer containing the europium chelate of the Eu-SA/Biotin-cAMP tracer for 3 hours. The assay was performed in duplicate in a 384 well plate for duplicate plates and fluorescence was measured at 665 nm. Basal activity was determined using a DMSO control and maximum response was defined as cAMP stimulation produced by an internal agonist control. Standard cAMP concentrations were assayed concurrently for conversion of fluorescence signal to cAMP level. The data was analyzed using 4-parameter curve fit in Microsoft Excel. […]

SMILES	EC50 [µM]
COC(=O)c1c(F)cc(OCC[C@@H]2C[C@@H]2C2CCN(CC(F)(F)F)CC2)cc1F [Example 1, Methyl 2,6-difluoro-4-(2-{(1S,2R)-2-[1-(2,2,2-trifluoroethyl)piperidin-4-yl]cyclopropyl}ethoxy)benzoate]	0.0287
O=C(NC1CC1)c1c(F)cc(OCC[C@@H]2C[C@@H]2C2CCN(CC(F)(F)F)CC2)cc1F [Example 3, N-Cyclopropyl-2,6-difluoro-4-(2-{(1S,2R)-2-[1-(2,2,2-trifluoroethyl)piperidin-4-yl]cyclopropyl}ethoxy)benzamide]	0.00528
CS(=O)(=O)c1ccc(OCC[C@@H]2C[C@@H]2C2CCN(CC(F)(F)F)CC2)cc1 [Example 4, 4-[(1R,2S)-2-{2-[4-(Methylsulfonyl)phenoxy]ethyl}cyclopropyl]-1-(2,2,2-trifluoroethyl)piperidine]	0.176

Same assay, conditions: table of Examples 5-56

SMILES	EC50 [µM]
CCC(F)(F)CN1CCC([C@H]2C[C@H]2CCOc2cc(F)c(C(=O)NC3CC3)c(F)c2)CC1 [Example 5]	0.00043
O=C(NC1CC1)c1ccc(OCC[C@@H]2C[C@@H]2C2CCN(CC(F)(F)C(F)(F)F)CC2)cc1F [Example 6]	0.00052
CCC(F)(F)CN1CCC([C@H]2C[C@H]2CCOc2cc(F)c(C(=O)NC3(C)CC3)c(F)c2)CC1 [Example 7]	0.0012
O=C(NCC1CCCO1)c1ccc(OCC[C@@H]2C[C@@H]2C2CCN(CC(F)(F)C(F)(F)F)CC2)cc1F (some centres unmarked) [Example 8]	0.0016
CC(C)(CO)NC(=O)c1ccc(OCC[C@@H]2C[C@@H]2C2CCN(CC(F)(F)C(F)(F)F)CC2)cc1F [Example 9]	0.00234
O=C(NCC1(O)CC1)c1ccc(OCC[C@@H]2C[C@@H]2C2CCN(CC(F)(F)C(F)(F)F)CC2)cc1F [Example 10]	0.00302
O=C(NC1CC1)c1ccc(OCC[C@@H]2C[C@@H]2C2CCN(CC(F)(F)C(F)F)CC2)cc1F [Example 11]	0.00316
O=C(NCc1cnoc1)c1ccc(OCC[C@@H]2C[C@@H]2C2CCN(CC(F)(F)C(F)(F)F)CC2)cc1F [Example 12]	0.00369
CC(C)(C)NC(=O)c1ccc(OCC[C@@H]2C[C@@H]2C2CCN(CC(F)(F)C(F)(F)F)CC2)cc1F [Example 13]	0.00383
CCC(F)(F)CN1CCC([C@H]2C[C@H]2CCOc2ccc(C(=O)NC3CC3)c(F)c2)CC1 [Example 16]	0.00534
O=C(NCCO)c1ccc(OCC[C@@H]2C[C@@H]2C2CCN(CC(F)(F)C(F)(F)F)CC2)cc1F [Example 17]	0.00538
O=C(NC1CC1(F)F)c1c(F)cc(OCC[C@@H]2C[C@@H]2C2CCN(CC(F)(F)F)CC2)cc1F (some centres unmarked) [Example 18]	0.00587
O=C(c1ccc(OCC[C@@H]2C[C@@H]2C2CCN(CC(F)(F)C(F)(F)F)CC2)cc1F)N1CCC(O)C1 (some centres unmarked) [Example 20]	0.0134
CC(C)(O)C1CCCN(C(=O)c2ccc(OCC[C@@H]3C[C@@H]3C3CCN(CC(F)(F)C(F)(F)F)CC3)cc2F)C1 (some centres unmarked) [Example 23]	0.0184
O=C(NC1CC(F)(F)C1)c1c(F)cc(OCC[C@@H]2C[C@@H]2C2CCN(CC(F)(F)F)CC2)cc1F [Example 24]	0.0203
CS(=O)(=O)c1ccc(OCC[C@@H]2C[C@@H]2C2CCN(CC(F)(F)C(F)(F)F)CC2)cc1 [Example 26]	0.0236
O=C(c1c(F)cc(OCC[C@@H]2C[C@@H]2C2CCN(CC(F)(F)F)CC2)cc1F)N1CC(F)(F)C1 [Example 31]	0.0458
O=C(NC1CCOCC1)c1c(F)cc(OCC[C@@H]2C[C@@H]2C2CCN(CC(F)(F)F)CC2)cc1F [Example 34]	0.0773
O=C(NC1CC1)c1ccc(OCC[C@@H]2C[C@@H]2C2CCN(CCC(F)(F)F)CC2)cc1F [Example 41]	0.0593
CC(C)(CN1CCC([C@H]2C[C@H]2CCOc2ccc(C(=O)NC3CC3)c(F)c2)CC1)C(F)(F)F [Example 42]	0.00234
O=C1Cc2cc(OCC[C@@H]3C[C@@H]3C3CCN(CC(F)(F)C(F)(F)F)CC3)cc(F)c2N1 [Example 43]	0.00713
CCC(F)(F)CN1CCC([C@H]2C[C@H]2CCOc2cc(F)c(C(=O)C3CC3)c(F)c2)CC1 [Example 45]	0.00165
FC(F)(F)C(F)(F)CN1CCC([C@H]2C[C@H]2CCOc2ccc(-n3cnnn3)cc2)CC1 [Example 49]	0.0242
FC(F)(F)C(F)(F)CN1CCC([C@H]2C[C@H]2CCOc2ccc(-n3cncn3)cc2)CC1 [Example 50]	0.0269
CS(=O)(=O)c1c(F)cc(COC[C@@H]2C[C@@H]2C2CCN(CC(F)(F)F)CC2)cc1F [Example 55]	0.568
C=CCCC(=O)c1ccc(OCC[C@@H]2C[C@@H]2C2CCN(CC(F)(F)C(F)(F)F)CC2)cc1F [Example 56]	0.0134

Results, then the compound that gave them:

EC50 [µM]	SMILES
0.00435	CS(=O)(=O)c1ccc(OCC[C@@H]2C[C@@H]2C2CCN(CC(F)(F)C(F)(F)F)CC2)cc1F [Example 14]
0.00528	O=C(NC1CC1)c1c(F)cc(OCC[C@@H]2C[C@@H]2C2CCN(CC(F)(F)F)CC2)cc1F [Example 15]
0.0122	CC(C)(C)NC(=O)c1c(F)cc(OCC[C@@H]2C[C@@H]2C2CCN(CC(F)(F)F)CC2)cc1F [Example 19]
0.014	CS(=O)(=O)c1ccc(OCC[C@@H]2C[C@@H]2C2CCN(CC(F)(F)C(F)(F)F)CC2)nc1 [Example 21]
0.0167	O=C(NC1CC1)c1ccc(OCC[C@@H]2C[C@@H]2C2CCN(CC(F)(F)F)CC2)cc1F [Example 22]
0.0225	CCC(F)(F)CN1CCC([C@H]2C[C@H]2CCOc2ccc(S(C)(=O)=O)c(F)c2)CC1 [Example 25]
0.0278	CS(=O)(=O)c1ccc(OCC[C@@H]2C[C@@H]2C2CCN(CC(F)(F)F)CC2)nc1 [Example 27]
0.0353	CCC(F)(F)CN1CCC([C@H]2C[C@H]2CCOc2cc(F)c(S(C)(=O)=O)c(F)c2)CC1 [Example 28]
0.068	COCCNC(=O)c1c(F)cc(OCC[C@@H]2C[C@@H]2C2CCN(CC(F)(F)F)CC2)cc1F [Example 33]
0.126	Cc1nc(C#N)cc(OCC[C@@H]2C[C@@H]2C2CCN(CC(F)(F)F)CC2)n1 [Example 35]
0.176	CS(=O)(=O)c1ccc(OCC[C@@H]2C[C@@H]2C2CCN(CC(F)(F)F)CC2)cc1 [Example 36]
0.199	Cc1cc(OCC[C@@H]2C[C@@H]2C2CCN(CC(F)(F)F)CC2)cc(C#N)n1 [Example 37]
0.257	O=C(c1ccc(OCC[C@@H]2C[C@@H]2C2CCN(CC(F)(F)F)CC2)cc1F)N1CCC(O)C1 (some centres unmarked) [Example 38]
0.27	O=C1Cc2cc(OCC[C@@H]3C[C@@H]3C3CCN(CC(F)(F)F)CC3)ccc2N1 [Example 39]
0.776	CC(F)(F)CN1CCC([C@H]2C[C@H]2CCOc2ccc(S(C)(=O)=O)cn2)CC1 [Example 40]
0.0516	CC(=O)c1ccc(OCC[C@@H]2C[C@@H]2C2CCN(CC(F)(F)C(F)(F)F)CC2)cc1F [Example 44]
0.00731	Cc1nnc(-c2ccc(OCC[C@@H]3C[C@@H]3C3CCN(CC(F)(F)C(F)(F)F)CC3)cc2F)o1 [Example 46]
0.0287	COC(=O)c1c(F)cc(OCC[C@@H]2C[C@@H]2C2CCN(CC(F)(F)F)CC2)cc1F [Example 51]
0.0408	Cc1nc(-c2ccc(OCC[C@@H]3C[C@@H]3C3CCN(CC(F)(F)C(F)(F)F)CC3)cc2)no1 [Example 52]
0.0579	CC(C)(C)NC(=O)c1ccc(OCC[C@@H]2C[C@@H]2C2CCN(CC(F)(F)F)CC2)cc1F [Example 53]
0.0595	Cc1nnc(-c2ccc(OCC[C@@H]3C[C@@H]3C3CCN(CC(F)(F)F)CC3)cc2F)o1 [Example 54]
